Target: T1, VEGFR-2 (KDR) (Homo sapiens, UniProt P35968)
T1 construct: purchased Invitrogen PV3660
Experiment: Transcreener Kinase Assay of VEGFR-2 (KDR)
Format: biochemical
Conditions: recombinant human KDR, Transcreener FP
Description: Transcreener Kinase Assay of VEGFR-2 (KDR)
• 1) Transcreenen™ KINASE Assy kit: Bellbrook Labs., 3003-10K; • 2) Recombinant human KDR: Invitrogen, PV3660; • 3) Poly E4Y (substrate): Sigma, P0275; 5 mg/mL, dissolved in MilliQ water; • 4) Assay buffer: 67 mM HEPES, 0.013% Triton X-100, 27 mM MgCl2, 0.67 mM MnCl2, 1.25 mM DTT, PH 7.4; • 5) 10 mM ATP: Invitrogen, PV3227; • 6) 500 mM EDTA: Invitrogen, 15575-038; • 7) 96 well black Greiner plate: Greiner, 675076.
• 1) Dilute the compound to 5 folds of final concentrations, keeping the DMSO concentration at 5%. The final concentrations are 1, 0.33, 0.11, 0.037, 0.012, 0.004, 0.0014, 0.0005 μM; and the final concentration of DMSO is 1%. • 2) Prepare Enzyme/Substrate stock, Recombinant human KDR and Poly E4Y are both diluted in assay buffer. The final concentration is KDR (0.3 ng/μL), Poly E4Y (62.5 ng/μL). […]
Wherein: • 1) Compound well [ADP] represents the ADP concentration of compound well. • 2) Positive control well [ADP] represents the ADP concentration of 5% DMSO well • 3) Conversion of mP value to ADP concentration based on the formula which determined by standard curve. […] (www.bellbrooklabs.com). • IC50: calculated using XL-Fit 2.0 software.

T1 sequence (P35968 20-1356): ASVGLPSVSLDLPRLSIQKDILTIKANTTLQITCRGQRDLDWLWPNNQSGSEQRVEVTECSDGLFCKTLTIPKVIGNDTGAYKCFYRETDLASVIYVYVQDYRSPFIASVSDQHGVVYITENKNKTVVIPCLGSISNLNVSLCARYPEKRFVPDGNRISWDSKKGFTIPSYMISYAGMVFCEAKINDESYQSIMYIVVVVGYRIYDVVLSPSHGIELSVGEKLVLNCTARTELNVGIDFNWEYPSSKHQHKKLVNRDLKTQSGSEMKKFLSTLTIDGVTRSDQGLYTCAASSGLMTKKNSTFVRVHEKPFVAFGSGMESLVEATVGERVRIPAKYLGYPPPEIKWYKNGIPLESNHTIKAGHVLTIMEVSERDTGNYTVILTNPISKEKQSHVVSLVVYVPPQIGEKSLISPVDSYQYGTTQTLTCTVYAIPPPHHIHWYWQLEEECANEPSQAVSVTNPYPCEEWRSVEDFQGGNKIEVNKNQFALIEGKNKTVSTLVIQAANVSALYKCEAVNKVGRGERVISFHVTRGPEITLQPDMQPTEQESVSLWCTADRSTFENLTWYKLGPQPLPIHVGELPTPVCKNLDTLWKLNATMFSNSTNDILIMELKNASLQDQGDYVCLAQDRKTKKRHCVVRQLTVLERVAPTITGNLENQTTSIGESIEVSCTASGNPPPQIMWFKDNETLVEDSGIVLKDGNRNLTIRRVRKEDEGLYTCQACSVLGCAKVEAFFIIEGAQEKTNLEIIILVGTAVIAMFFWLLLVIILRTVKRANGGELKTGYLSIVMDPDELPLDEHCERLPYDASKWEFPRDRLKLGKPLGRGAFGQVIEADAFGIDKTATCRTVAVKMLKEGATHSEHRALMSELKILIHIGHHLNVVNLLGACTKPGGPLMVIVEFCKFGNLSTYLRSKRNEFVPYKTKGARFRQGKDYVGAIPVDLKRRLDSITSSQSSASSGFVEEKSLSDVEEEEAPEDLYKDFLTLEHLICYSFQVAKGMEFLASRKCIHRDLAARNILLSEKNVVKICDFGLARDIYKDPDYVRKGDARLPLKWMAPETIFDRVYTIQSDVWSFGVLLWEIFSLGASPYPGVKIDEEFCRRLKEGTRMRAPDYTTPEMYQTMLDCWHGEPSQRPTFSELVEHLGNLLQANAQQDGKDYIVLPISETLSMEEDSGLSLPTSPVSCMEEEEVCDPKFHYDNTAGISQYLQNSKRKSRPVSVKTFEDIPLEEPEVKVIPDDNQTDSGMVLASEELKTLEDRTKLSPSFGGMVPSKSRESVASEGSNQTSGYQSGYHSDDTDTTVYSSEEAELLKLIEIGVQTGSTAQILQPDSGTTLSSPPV

| SMILES | IC50 |
| --- | --- |
| CC(=O)N1CCO[C@H](COc2nc(-c3ccc4c(c3)CCOC4(C)C)cc3nccnc23)C1 [Compound 300] | 1130 nM |
| CC(C)(O)c1ccc(-c2cc3nccnc3c(OC[C@@H]3CN(S(C)(=O)=O)CCO3)n2)cc1 [Compound 219] | 748 nM |

From patent US20170152258A9, “Substituted Pyridopyrazines as Syk Inhibitors” (HUTCHISON MEDIPHARMA LIMITED, priority 2012, published 2017)
